Laboratory results as given in PubChem BioAssay AID1259408 (Genetic Toxicology Data Bank (GENE-TOX), 2018).
Active and inactive are the calls of the source. How the calls were made is not given here.

System: GENE-TOX genotoxicity assays, various organisms and cells
Test: GENE-TOX mutagenicity studies
Conditions: for call: Assay Type: In vivo carcinogenicity studies
[1] = Species/Cell Type: Escherichia coli polA (W3119 vs P3478), Assay Type: Rec-assay, DNA effects (bacterial DNA repair), Assay Code: RE1T, Evaluation Type: Evaluation A (Pre-1980)
[2] = Species/Cell Type: Salmonella typhimurium (one or more of the five standard strains: TA98, TA100, TA1535, TA1537, and TA1538), Assay Type: Histidine reverse gene mutation, Ames assay, Assay Code: SAL+*, Activation: With metabolic activation, Evaluation Type: Evaluation A (Pre-1980)
[3] = Species/Cell Type: Syrian hamster embryo (SHE) cells, Assay Type: Cell transformation, clonal assay, Assay Code: CTC+, Evaluation Type: Evaluation A (Pre-1980)
[4] = Species/Cell Type: Nonhuman, Assay Type: Sister-chromatid exchange (SCE) in vitro, Assay Code: SC2+D, Dose Response: With dose response, Evaluation Type: Evaluation B (Post-1980)
[5] = Species/Cell Type: Salmonella typhimurium (one or more of the five standard strains: TA98, TA100, TA1535, TA1537, and TA1538), Assay Type: Histidine reverse gene mutation, Ames assay, Assay Code: SAL+, Evaluation Type: Evaluation A (Pre-1980)
[6] = Species/Cell Type: Salmonella typhimurium (one or more of the five standard strains: TA98, TA100, TA1535, TA1537, and TA1538), Assay Type: Histidine reverse gene mutation, Ames assay, Assay Code: SAL-, Evaluation Type: Evaluation A (Pre-1980)
[7] = Species/Cell Type: Drosophila melanogaster, Assay Type: Sex-linked recessive lethal gene mutation, Assay Code: SRLT, Evaluation Type: Evaluation A (Pre-1980)
[8] = Species/Cell Type: Nonhuman, Assay Code: CCG+, Evaluation Type: Evaluation A (Pre-1980)
[9] = Species/Cell Type: Human, Sex: Male, Assay Type: Sperm morphology, Assay Code: SPHT, Evaluation Type: Evaluation A (Pre-1980)
[10] = Species/Cell Type: Mammalian polychromatic erythrocytes, Assay Type: Micronucleus test, chromosome aberrations, Assay Code: MNT+, Evaluation Type: Evaluation B (Post-1980)
[11] = Species/Cell Type: Mammalian polychromatic erythrocytes, Assay Type: Micronucleus test, chromosome aberrations, Assay Code: MNTT, Evaluation Type: Evaluation B (Post-1980)
[12] = Species/Cell Type: Nonhuman, Assay Type: Sister-chromatid exchange (SCE) in vivo, Assay Code: SC3+, Evaluation Type: Evaluation B (Post-1980)
[13] = Species/Cell Type: Human diploid fibroblasts, Assay Type: Unscheduled DNA synthesis (UDS) in vitro, DNA effects, Assay Code: UDH+, Evaluation Type: Evaluation A (Pre-1980)
[14] = Species/Cell Type: Bacillus subtilis (H17 vs M45), Assay Type: Rec-assay, spot test, DNA effects (bacterial DNA repair), Assay Code: REW+, Evaluation Type: Evaluation A (Pre-1980)
[15] = Species/Cell Type: Saccharomyces cerevisiae, Assay Type: Mitotic recombination or gene conversion, Assay Code: YEC+, Evaluation Type: Evaluation A (Pre-1980)
[16] = Species/Cell Type: Chinese hamster lung (V79) cells, Assay Type: Forward gene mutation at the HPRT or ouabain locus, Assay Code: V79+, Evaluation Type: Evaluation A (Pre-1980)
[17] = Species/Cell Type: Escherichia coli WP2 UVRA, Assay Type: Tryptophan reverse gene mutation, Assay Code: WPU+D, Dose Response: With dose response, Evaluation Type: Evaluation A (Pre-1980)
[18] = Species/Cell Type: Arabidopsis species, Assay Type: Gene mutation, Assay Code: ARM+D, Dose Response: With dose response, Evaluation Type: Evaluation A (Pre-1980)

Cc1ccc2nc3c(ccc4ccccc43)c(C)c2c1
mutagenic call (Species/Cell Type: Escherichia coli polA (W3110 vs P3478), Assay Type: Rec-assay, DNA effects (bacterial DNA repair), Assay Code: RE2T, Evaluation Type: Evaluation A (Pre-1980)): no conclusion
mutagenic call [1]: no conclusion
mutagenic call (Species/Cell Type: Fischer rat embryo (RLV/1706) cells, Assay Type: Cell transformation, viral enhanced, Assay Code: CTR+, Evaluation Type: Evaluation A (Pre-1980)): active; positive
mutagenic call (Species/Cell Type: Mouse (BALB/c-3T3) cells, Assay Type: Cell transformation, Assay Code: CTB-, Evaluation Type: Evaluation A (Pre-1980)): inactive; negative
call (Species/Cell Type: Nonhuman, Assay Code: CCG+L, Evaluation Type: Evaluation A (Pre-1980)): active; positive
mutagenic call (Species/Cell Type: Saccharomyces cerevisiae, Assay Type: Mitotic recombination or gene conversion, Assay Code: YEH-, Evaluation Type: Evaluation A (Pre-1980)): inactive; negative
mutagenic call [2]: active; positive
mutagenic call (Species/Cell Type: Salmonella typhimurium, Assay Type: Forward and reverse gene mutation, host-mediated assay, Assay Code: HMA-, Evaluation Type: Evaluation A (Pre-1980)): inactive; negative
mutagenic call [3]: active; positive

[N-]=[N+]=CC(=O)NCC(N)=O
mutagenic call [4]: active; positive
mutagenic call [5]: active; positive

O=S(=O)(O)c1c(N=Nc2c(O)ccc3ccccc23)ccc2ccccc12
mutagenic call [6]: inactive; negative

O=c1cnn([C@@H]2O[C@H](CO)[C@@H](O)[C@H]2O)c(=O)[nH]1
mutagenic call [7]: no conclusion
mutagenic call (Species/Cell Type: Rabbit, Sex: Male, Assay Type: Sperm morphology, Assay Code: SPR+, Evaluation Type: Evaluation A (Pre-1980)): active; positive

C=CCOC(=O)CC(C)C
call [8]: active; positive

CC1CN(N=O)CCN1N=O (centres undefined)
mutagenic call [2]: active; positive

O=C1NC(=O)C(c2ccccc2)(c2ccccc2)N1
mutagenic call (Species/Cell Type: Human lymphocytes, Assay Type: Sister-chromatid exchange (SCE) in vivo, Assay Code: SCY+, Evaluation Type: Evaluation B (Post-1980)): active; positive
mutagenic call [9]: no conclusion
mutagenic call [10]: active; positive
mutagenic call [11]: no conclusion
mutagenic call [12]: active; positive

CNNC
mutagenic call (Species/Cell Type: Escherichia coli polA (W3119 vs P3478), Assay Type: Rec-assay, DNA effects (bacterial DNA repair), Assay Code: RE1+, Evaluation Type: Evaluation A (Pre-1980)): active; positive
mutagenic call [1]: no conclusion
mutagenic call [10]: active; positive
mutagenic call (Species/Cell Type: Mammalian polychromatic erythrocytes, Assay Type: Micronucleus test, chromosome aberrations, Assay Code: MNTT, Evaluation Type: Evaluation A (Pre-1980)): no conclusion
mutagenic call [11]: no conclusion
call [8]: active; positive
mutagenic call [4]: active; positive
mutagenic call (Species/Cell Type: Saccharomyces cerevisiae, Assay Type: Mitotic recombination or gene conversion, Assay Code: YEHT, Evaluation Type: Evaluation A (Pre-1980)): no conclusion
mutagenic call [6]: inactive; negative
mutagenic call (Species/Cell Type: Salmonella typhimurium, Assay Type: Forward and reverse gene mutation, body fluid assay, Assay Code: BFU-, Evaluation Type: Evaluation A (Pre-1980)): inactive; negative
mutagenic call (Species/Cell Type: Salmonella typhimurium, Assay Type: Forward and reverse gene mutation, host-mediated assay, Assay Code: HMA+, Evaluation Type: Evaluation A (Pre-1980)): active; positive
mutagenic call (Species/Cell Type: Syrian hamster embryo (SHE) cells, Assay Type: Cell transformation, clonal assay, Assay Code: CTCT, Evaluation Type: Evaluation A (Pre-1980)): no conclusion

CC(=O)N(O)c1ccc(-c2ccccc2)cc1
mutagenic call [13]: active; positive
mutagenic call (Species/Cell Type: Nonhuman, Assay Type: Sister-chromatid exchange (SCE) in vitro, Assay Code: SC2+, Evaluation Type: Evaluation B (Post-1980)): active; positive

CC(C)CI
mutagenic call [1]: no conclusion

CN1CCC(=C2c3ccccc3C=Cc3ccccc32)CC1
mutagenic call (Species/Cell Type: Salmonella typhimurium (one or more of the five standard strains: TA98, TA100, TA1535, TA1537, and TA1538), Assay Type: Histidine reverse gene mutation, Ames assay, Assay Code: SALT, Evaluation Type: Evaluation A (Pre-1980)): no conclusion

CCCCC(=O)N(C)N=O
mutagenic call (Species/Cell Type: Saccharomyces cerevisiae, Assay Type: Reverse gene mutation, Assay Code: YER+, Evaluation Type: Evaluation A (Pre-1980)): active; positive

NNCCO
mutagenic call [14]: active; positive
mutagenic call (Species/Cell Type: Escherichia coli WP2, Assay Type: Tryptophan reverse gene mutation, Assay Code: WP2+, Evaluation Type: Evaluation A (Pre-1980)): active; positive
mutagenic call (Species/Cell Type: Escherichia coli WP2 UVRA, Assay Type: Tryptophan reverse gene mutation, Assay Code: WPU+, Evaluation Type: Evaluation A (Pre-1980)): active; positive
mutagenic call [4]: active; positive
mutagenic call [5]: active; positive

O=C1OC2(c3cc(Br)c(O)cc3Oc3c2cc(Br)c(O)[c]3[Hg])c2ccccc21 (centres undefined)
mutagenic call (Species/Cell Type: Saccharomyces cerevisiae, Assay Type: Aneuploidy, chromosome aberrations, Assay Code: YEN+, Evaluation Type: Evaluation A (Pre-1980)): active; positive
mutagenic call [15]: active; positive

BrCc1c2ccccc2cc2c1ccc1ccccc12
mutagenic call [16]: active; positive
mutagenic call (Species/Cell Type: Drosophila melanogaster, Assay Type: Sex-linked recessive lethal gene mutation, Assay Code: SRL+, Evaluation Type: Evaluation A (Pre-1980)): active; positive
mutagenic call (Species/Cell Type: Escherichia coli WP2, Assay Type: Tryptophan reverse gene mutation, Assay Code: WP2+D, Dose Response: With dose response, Evaluation Type: Evaluation A (Pre-1980)): active; positive
mutagenic call [17]: active; positive
mutagenic call [13]: active; positive
call [8]: active; positive
mutagenic call [4]: active; positive
mutagenic call (Species/Cell Type: Syrian hamster embryo (SHE) cells, Assay Type: Cell transformation, clonal assay, Assay Code: CTC-, Evaluation Type: Evaluation A (Pre-1980)): inactive; negative

COCC(O)Cn1ccnc1[N+](=O)[O-] (centres undefined)
mutagenic call [17]: active; positive
mutagenic call (Species/Cell Type: Mouse (C3H/10T1/2) cells, Assay Type: Cell transformation, Assay Code: CTH+D, Dose Response: With dose response, Evaluation Type: Evaluation A (Pre-1980)): active; positive
mutagenic call [4]: active; positive
mutagenic call (Species/Cell Type: Nonhuman, Assay Type: Sister-chromatid exchange (SCE) in vivo, Assay Code: SC3T, Evaluation Type: Evaluation B (Post-1980)): no conclusion
mutagenic call [5]: active; positive

Oc1cc2cc3ccccc3cc2c2ccccc12
mutagenic call [16]: active; positive
mutagenic call (Species/Cell Type: Mouse prostate cells, Assay Type: Cell transformation, Assay Code: CTM-, Evaluation Type: Evaluation A (Pre-1980)): inactive; negative
mutagenic call [3]: active; positive

C=CCN(N=O)C(N)=O
mutagenic call [18]: active; positive
mutagenic call [15]: active; positive

[Cl][Fe][Cl]
mutagenic call (Species/Cell Type: Bacillus subtilis (H17 vs M45), Assay Type: Rec-assay, spot test, DNA effects (bacterial DNA repair), Assay Code: REW-, Evaluation Type: Evaluation A (Pre-1980)): inactive; negative
mutagenic call (Species/Cell Type: Syrian hamster embryo (SA7/SHE) cells, Assay Type: Cell transformation, viral enhanced, Assay Code: CT7+, Evaluation Type: Evaluation A (Pre-1980)): active; positive

CCOS(=O)(=O)CCCS(=O)(=O)OCC
mutagenic call [18]: active; positive
mutagenic call (Species/Cell Type: Hordeum vulgare (barley), Assay Type: Chromosome aberrations, Assay Code: HOC+D, Dose Response: With dose response, Evaluation Type: Evaluation A (Pre-1980)): active; positive

CCC(=O)C(CC(C)N(C)C)(c1ccccc1)c1ccccc1 (centres undefined)
mutagenic call (Species/Cell Type: Drosophila melanogaster, Assay Type: Sex-linked recessive lethal gene mutation, Assay Code: SRL-, Evaluation Type: Evaluation A (Pre-1980)): inactive; negative
mutagenic call (Species/Cell Type: Drosophila melanogaster, Sex: Male, Assay Type: Heritable translocation test, chromosome aberrations, Assay Code: DHT-, Evaluation Type: Evaluation A (Pre-1980)): inactive; negative
mutagenic call [9]: no conclusion

[O-2].[O-2].[O-2].[Sb+3].[Sb+3]
mutagenic call [14]: active; positive

N#CCCN
mutagenic call [7]: no conclusion
mutagenic call [12]: active; positive

CC1(C)CN1
mutagenic call (Species/Cell Type: Schizosaccharomyces pombe, Assay Type: Reverse gene mutation, Assay Code: YEZ+, Evaluation Type: Evaluation A (Pre-1980)): active; positive
